This is an account of results in PubChem BioAssay AID248 (DTP/NCI, 2004).

“And” between values parts separate entries of the source, which are not always exact repeats. Equal entries are not always repeated. Toxic doses and inconclusive results are not listed.

The assay relates to L1210 leukemia ip in BDF1 mice, survival T/C. Description: NCI In Vivo Anticancer Drug Screen. Data for tumor model L1210 Leukemia (intraperitoneal) in B6D2F1 (BDF1) mice. Particulars: endpoint: mean survival time, higher = longer survival. The method in brief:
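In this screen, tumor-bearing mice given compound are compared to those given vehicle, and their survival values are reported as a treated-to-control quotient.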

Where [1] appears, read: dose: 50.0 mg/kg/injection, schedule: Q01DX009 (ip), vehicle: Klucel (hydroxypropylcellulose) (HPC).
Where [2] appears, read: dose: 100.0 mg/kg/injection, schedule: Q01DX009 (ip), vehicle: Klucel (hydroxypropylcellulose) (HPC).

With `CC1CN1P(=O)(N1CC1C)N1CC1C` (centres undefined), the T/C is, setting by setting: (dose: 13.3 mg/kg/injection, schedule: Q01DX009 (ip), vehicle: saline) 124 % of control; (dose: 19.0 mg/kg/injection, schedule: Q01DX009 (ip), vehicle: saline) 124 % of control; (dose: 66.0 mg/kg/injection, schedule: Q01DX001 (ip), vehicle: saline) 163 % of control; (dose: 99.0 mg/kg/injection, schedule: Q01DX009 (ip), vehicle: saline) 88 % of control; (dose: 150.0 mg/kg/injection, schedule: Q01DX001 (ip), vehicle: saline) 159 % of control.

Take `COc1ccc(C(=O)N/N=C/c2cccc([N+](=O)[O-])c2)cc1`: the T/C is, setting by setting: (dose: 100.0 mg/kg/injection, schedule: Q01DX001 (ip), vehicle: carboxymethylcellulose (CMC)) 98 % of control; (dose: 100.0 mg/kg/injection, schedule: Q01DX009 (ip), vehicle: carboxymethylcellulose (CMC)) 90 % of control and 92 % of control; (dose: 100.0 mg/kg/injection, schedule: Q04DX002 (ip), vehicle: other) 98 % of control; (dose: 100.0 mg/kg/injection, schedule: Q04DX003 (ip), vehicle: carboxymethylcellulose (CMC)) 98 % of control; (dose: 200.0 mg/kg/injection, schedule: Q01DX001 (ip), vehicle: carboxymethylcellulose (CMC)) 97 % of control; (dose: 200.0 mg/kg/injection, schedule: Q01DX009 (ip), vehicle: carboxymethylcellulose (CMC)) 101 % of control and 90 % of control. Also, the T/C (dose: 200.0 mg/kg/injection, schedule: Q04DX002 (ip), vehicle: other) was 95 % of control; the T/C (dose: 200.0 mg/kg/injection, schedule: Q04DX003 (ip), vehicle: carboxymethylcellulose (CMC)) was 98 % of control; the T/C (dose: 400.0 mg/kg/injection, schedule: Q01DX001 (ip), vehicle: carboxymethylcellulose (CMC)) was 93 % of control; the T/C (dose: 400.0 mg/kg/injection, schedule: Q01DX009 (ip), vehicle: carboxymethylcellulose (CMC)) was 95 % of control and 96 % of control; the T/C (dose: 400.0 mg/kg/injection, schedule: Q04DX002 (ip), vehicle: other) is 95 % of control; the T/C (dose: 400.0 mg/kg/injection, schedule: Q04DX003 (ip), vehicle: carboxymethylcellulose (CMC)) was 102 % of control.

`CC(C)C(=O)NNCc1ccccc1`: the T/C was 106 % of control (dose: 12.5 mg/kg/injection, schedule: Q01DX009 (ip), vehicle: Klucel (hydroxypropylcellulose) (HPC)); 104 % of control (dose: 25.0 mg/kg/injection, schedule: Q01DX009 (ip), vehicle: Klucel (hydroxypropylcellulose) (HPC)); 97 % of control under setting [1]; 92 % of control under setting [2].

As for `CCN(CCNc1ccc(C)c2sc3ccccc3c(=O)c12)CC(C)(C)O`, the T/C reads like this: (dose: 25.0 mg/kg/injection, schedule: Q01DX009 (ip), vehicle: saline sonified) 97 % of control; (dose: 32.0 mg/kg/injection, schedule: Q02DX Z (ip), vehicle: distilled water + alcohol) 119 % of control; (dose: 50.0 mg/kg/injection, schedule: Q01DX001 (ip), vehicle: saline) 106 % of control; (dose: 50.0 mg/kg/injection, schedule: Q01DX009 (ip), vehicle: saline sonified) 95 % of control; (dose: 60.0 mg/kg/injection, schedule: Q01DX009 (ip), vehicle: saline) 120 % of control; (dose: 100.0 mg/kg/injection, schedule: Q01DX001 (ip), vehicle: saline) 112 % of control. The T/C reads like this: (dose: 100.0 mg/kg/injection, schedule: Q01DX009 (ip), vehicle: saline sonified) 118 % of control; (dose: 200.0 mg/kg/injection, schedule: Q01DX001 (ip), vehicle: saline) 109 % of control; (dose: 200.0 mg/kg/injection, schedule: Q04DX003 (ip), vehicle: saline) 104 % of control; (dose: 300.0 mg/kg/injection, schedule: Q01DX009 (ip), vehicle: saline) 95 % of control; (dose: 400.0 mg/kg/injection, schedule: Q01DX001 (ip), vehicle: saline) 124 % of control; (dose: 400.0 mg/kg/injection, schedule: Q04DX003 (ip), vehicle: saline) 108 % of control. For the same molecule, the T/C (dose: 600.0 mg/kg/injection, schedule: Q04DX003 (ip), vehicle: saline) is 189 % of control.

Regarding `CCOc1ccc2nc(S(N)(=O)=O)sc2c1`, the T/C was 100 % of control (dose: 100.0 mg/kg/injection, schedule: Q01DX Z (ip), vehicle: saline); 97 % of control (dose: 200.0 mg/kg/injection, schedule: Q01DX Z (ip), vehicle: saline); 111 % of control (dose: 400.0 mg/kg/injection, schedule: Q01DX Z (ip), vehicle: saline).

Regarding `C[N+]1(C)Cc2ccccc2-c2ccccc2C1`, the T/C reads like this: (dose: 12.0 mg/kg/injection, schedule: Q04DX003 (ip), vehicle: saline) 121 % of control; (dose: 12.5 mg/kg/injection, schedule: Q01DX009 (ip), vehicle: saline) 103 % of control; (dose: 25.0 mg/kg/injection, schedule: Q01DX009 (ip), vehicle: saline) 111 % of control; (dose: 25.0 mg/kg/injection, schedule: Q04DX003 (ip), vehicle: saline) 94 % of control; (dose: 50.0 mg/kg/injection, schedule: Q04DX003 (ip), vehicle: saline) 106 % of control.

As for `O=C(CNC(=O)c1ccc(Cl)c(Cl)c1)N/N=C/c1ccc(Cl)cc1`, the T/C is 93 % of control under setting [1]; 88 % of control under setting [2]; 98 % of control (dose: 200.0 mg/kg/injection, schedule: Q01DX009 (ip), vehicle: Klucel (hydroxypropylcellulose) (HPC)).

Turning to `CCOC(=O)[C@H]1CCC[C@@H](NC(=O)N(CCCl)N=O)C1`, the T/C (dose: 5.0 mg/kg/injection, schedule: Q01DX001 (ip), vehicle: other) is 108 % of control; the T/C (dose: 10.0 mg/kg/injection, schedule: Q01DX001 (ip), vehicle: other) was 123 % of control; the T/C (dose: 20.0 mg/kg/injection, schedule: Q01DX001 (ip), vehicle: other) was 194 % of control; the T/C (dose: 31.0 mg/kg/injection, schedule: Q01DX001 (ip), vehicle: other) is 329 % of control; the T/C (dose: 40.0 mg/kg/injection, schedule: Q01DX001 (ip), vehicle: other) was 305 % of control; the T/C (dose: 62.0 mg/kg/injection, schedule: Q01DX001 (ip), vehicle: other) is 254 % of control.

`O=C(O)c1ccc(NC(=S)S)cc1`: the T/C runs as follows: (dose: 100.0 mg/kg/injection, schedule: Q04DX002 (ip), vehicle: Klucel (hydroxypropylcellulose) (HPC)) 103 % of control; (dose: 200.0 mg/kg/injection, schedule: Q04DX002 (ip), vehicle: Klucel (hydroxypropylcellulose) (HPC)) 98 % of control; (dose: 400.0 mg/kg/injection, schedule: Q04DX002 (ip), vehicle: Klucel (hydroxypropylcellulose) (HPC)) 98 % of control.

In the case of `CC(/C=N/NC1=NCCN1)=N/NC1=NCCN1`, the T/C was 104 % of control (dose: 15.7 mg/kg/injection, schedule: Q01DX Z (ip), vehicle: carboxymethylcellulose (CMC)); 101 % of control (dose: 31.5 mg/kg/injection, schedule: Q01DX Z (ip), vehicle: carboxymethylcellulose (CMC)); 102 % of control (dose: 63.0 mg/kg/injection, schedule: Q01DX Z (ip), vehicle: carboxymethylcellulose (CMC)); 103 % of control (dose: 126.0 mg/kg/injection, schedule: Q01DX Z (ip), vehicle: carboxymethylcellulose (CMC)); 106 % of control (dose: 127.0 mg/kg/injection, schedule: Q01DX Z (ip), vehicle: carboxymethylcellulose (CMC)).

On to `COc1ccccc1N=Nc1c(O)n(-c2ccc(C)cc2)c(=S)n(-c2ccccc2)c1=O`, for which the T/C is 94 % of control (dose: 50.0 mg/kg/injection, schedule: Q01DX001 (ip), vehicle: Klucel (hydroxypropylcellulose) (HPC)); 87 % of control (dose: 100.0 mg/kg/injection, schedule: Q01DX001 (ip), vehicle: Klucel (hydroxypropylcellulose) (HPC)); 89 % of control (dose: 200.0 mg/kg/injection, schedule: Q01DX001 (ip), vehicle: Klucel (hydroxypropylcellulose) (HPC)).

With `CNC(=N)c1ccc(NC(=N)c2ccc(NC(=N)c3ccc(NC(=O)Nc4ccc(C(=N)NC)cc4)cc3)cc2)cc1`, the T/C was 114 % of control (dose: 1.87 mg/kg/injection, schedule: Q01DX015 (ip), vehicle: water); 103 % of control (dose: 3.0 mg/kg/injection, schedule: Q01DX015 (sc), vehicle: water); 101 % of control (dose: 4.4 mg/kg/injection, schedule: Q01DX015 (sc), vehicle: water); 103 % of control (dose: 6.7 mg/kg/injection, schedule: Q01DX015 (sc), vehicle: water); 206 % of control (dose: 7.5 mg/kg/injection, schedule: Q01DX015 (ip), vehicle: water); 206 % of control (dose: 15.0 mg/kg/injection, schedule: Q01DX015 (sc), vehicle: water). Moreover, the T/C (dose: 22.5 mg/kg/injection, schedule: Q01DX015 (sc), vehicle: water) is 158 % of control.
